Assay results as given in PMC7687371, “Quantitative in Vitro to in Vivo Extrapolation (QIVIVE) for Predicting Reduced Anogenital Distance Produced by Anti-Androgenic Pesticides in a Rodent Model for Male Reproductive Disorders” (Environmental Health Perspectives, 2020).

Experiments:
[1] = PBK model first-order kinetic parameters fitted to in vivo ADME data; set-up: species or system rat
NCI-H295R cells = assay: H295R steroidogenesis assay; format: cell-based, human
Experimental: To capture effects on steroid hormone synthesis (testosterone and androstendione), we tested all 12 pesticides in the H295R assay with the human adrenocortical carcinoma cell line NCI-H295R (American Type Culture Collection no. CRL-2,128, LGC Standards), as previously described ([Hecker et al. 2011]; [Rosenmai et al. 2013]). In brief, cells were cultured in DMEM/F-12 +glutamine medium with HEPES buffer (Invitrogen) containing 1% insulin-transferrin-sodium selenite plus Premix (VWR) and 2.5% Nu-Serum (BD Bioscience) at 37°C in a 5% CO2 atmosphere. The day before exposure, cells were seeded 300,000 per well in clear 24-well plates (VWR Corning). Cells were exposed for 48 h to control (Forskolin: 1μM , 10μM (Sigma-Aldrich); and Prochloraz: 0.3μM , 3μM (VWR-Bie and Berntsen) or test compounds. The vehicle (DMSO) concentration was kept constant in all wells (0.1%). After 48 h, the exposure culture medium was removed and stored at –80°C until the levels of 10 steroid hormones (testosterone, androstenedione, aldosterone, corticosterone, cortisol, dehydroepiandrosterone, 17α-hydroxyprogesterone , progesterone, estrone, and 17β-estradiol ) were quantified using the high-performance liquid chromatography–tandem mass spectrometry method described elsewhere ([Mortensen and Pedersen 2007]). Minor modifications were made to accommodate a smaller sample size and to include more hormones. The liquid chromatography system (Agilent 1100) was equipped with an Atlantis C18 column ( 2.1×150mm , 3μm ) (Waters Corp.) maintained at 40°C. The sample injection volume was 50μL . […] The mass spectrometer was a Quattro Ultima triple quadrupole instrument (Waters Corp.). […] Each pesticide was tested in 2-fold serial dilutions at concentrations between 0.8 and 50μM in three independent experiments, and hormone levels were normalized to the solvent controls containing 0.1% DMSO. Cell viability was evaluated by using the 3-(4,5-dimethylthiazol-2-yl)-2,5- diphenyltetrazolium bromide (MTT) assay (Sigma) as previously described ([Hecker et al. 2011]; [Rosenmai et al. 2013]). Fluorescence was measured (excitation 560 nm , emission 590 nm ) using a Wallac Victor2 1420 multilabel counter (PerkinElmer).

pregnant dams and pups = conditions: ref EFSA's Draft Assessment Reports (DARs); cited from earlier work
[2] = set-up: method as in U.S. EPA 2012; conditions: EPI Suite, experimental preferred over modeled; ref U.S. EPA 2012; cited from earlier work

SMILES	Fecal excretion rate from gut (L/h) KFeces ([1]; PBK model parameter)	Portal GI absorption rate into liver (L/h) KAS ([1]; PBK model parameter)	Urine excretion rate from kidney (L/h) KUrine ([1]; PBK model parameter)	Metabolism rate in liver, Total (L/h) KMetab ([1]; metabolic clearance, PBK model parameter)	Effect on androgen (steroid) synthesis, in words (NCI-H295R cells; H295R steroidogenesis assay)	IC20 (NCI-H295R cells; Homo sapiens, NCI-H295R, read-out: Testosterone inhibition (IC20 µM))	Corticosterone, LOEC (NCI-H295R cells; multiple contrast tests)	Cortisol, LOEC (NCI-H295R cells; multiple contrast tests)	Critical toxicity (pregnant dams and pups)	log Kow [2]	Metabolism rate in liver, Metabolite ([1]; conversion of parent compound into active metabolite)	IC50 (NCI-H295R cells; Homo sapiens, NCI-H295R, 48 h, read-out: Testosterone inhibition (IC50, μM))
CC1(C)[C@H](C(=O)O[C@H](C#N)c2cccc(Oc3ccccc3)c2)[C@@H]1/C=C(\Cl)C(F)(F)F (racemic) [λ-Cyhalothrin, λ-cyhalothrin]	4 L/h	1 L/h	0.05 L/h	0.3 L/h	no effect on any measured androgen	> 50 µM	3.1 µM	3.1 µM	Reduced maternal and pup BW	6.80		
NC(=O)Nc1ccc(Cl)c(Cl)c1 [DPU, 1-(3,4-Dichlorophenyl)urea]			0.05 L/h							2.00	0.25 L/h	5 µM
